Experimental data reported in article PMC3095698 (Journal of molecular biology, 2011).

How the values were obtained:
Format in all cases: biochemical
3×HA-DGKα [1] = target: 3×HA-DGKα (Homo sapiens, UniProt P23743, V656L); assay: […]-ATP phosphorylation in Triton X-100 mixed micelles, COS-7 lysate; conditions: 0.1 mM ATP, 5 mM MgCl2, pH 7.5, 25 °C; DOPS in micelles; surface mole percent
3×HA-DGKα [2] = target: 3×HA-DGKα (Homo sapiens, UniProt P23743); assay: as above; conditions: 0.1 mM ATP, 5 mM MgCl2, pH 7.5, 25 °C; DOPS in micelles; surface mole percent
c-myc-PIP5K Iα = c-myc-PIP5K Iα (Homo sapiens, UniProt Q99755); assay: activation of DP-PI; conditions: activator; 20 μM DP-PI(4)P, 50 μM PA, 50 μM ATP
Sequence of c-myc-PIP5K Iα (Q99755 whole entry): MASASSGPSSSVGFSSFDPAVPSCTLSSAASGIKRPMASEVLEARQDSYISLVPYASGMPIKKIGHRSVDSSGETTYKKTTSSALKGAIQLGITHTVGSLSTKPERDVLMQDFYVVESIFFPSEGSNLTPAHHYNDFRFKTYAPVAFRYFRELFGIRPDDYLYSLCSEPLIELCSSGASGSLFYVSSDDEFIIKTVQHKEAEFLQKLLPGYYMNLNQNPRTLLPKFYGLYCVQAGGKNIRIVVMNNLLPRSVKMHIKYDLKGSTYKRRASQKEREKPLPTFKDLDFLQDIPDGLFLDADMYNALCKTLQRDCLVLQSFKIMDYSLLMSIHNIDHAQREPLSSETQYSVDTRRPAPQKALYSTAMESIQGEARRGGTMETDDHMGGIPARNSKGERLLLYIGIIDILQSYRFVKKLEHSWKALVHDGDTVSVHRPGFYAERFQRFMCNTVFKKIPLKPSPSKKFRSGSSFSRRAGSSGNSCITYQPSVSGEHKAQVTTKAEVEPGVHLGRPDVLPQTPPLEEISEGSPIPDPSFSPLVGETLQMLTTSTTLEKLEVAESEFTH

Sequence of 3×HA-DGKα (Homo sapiens, UniProt P23743, V656L) (P23743 whole entry V656L): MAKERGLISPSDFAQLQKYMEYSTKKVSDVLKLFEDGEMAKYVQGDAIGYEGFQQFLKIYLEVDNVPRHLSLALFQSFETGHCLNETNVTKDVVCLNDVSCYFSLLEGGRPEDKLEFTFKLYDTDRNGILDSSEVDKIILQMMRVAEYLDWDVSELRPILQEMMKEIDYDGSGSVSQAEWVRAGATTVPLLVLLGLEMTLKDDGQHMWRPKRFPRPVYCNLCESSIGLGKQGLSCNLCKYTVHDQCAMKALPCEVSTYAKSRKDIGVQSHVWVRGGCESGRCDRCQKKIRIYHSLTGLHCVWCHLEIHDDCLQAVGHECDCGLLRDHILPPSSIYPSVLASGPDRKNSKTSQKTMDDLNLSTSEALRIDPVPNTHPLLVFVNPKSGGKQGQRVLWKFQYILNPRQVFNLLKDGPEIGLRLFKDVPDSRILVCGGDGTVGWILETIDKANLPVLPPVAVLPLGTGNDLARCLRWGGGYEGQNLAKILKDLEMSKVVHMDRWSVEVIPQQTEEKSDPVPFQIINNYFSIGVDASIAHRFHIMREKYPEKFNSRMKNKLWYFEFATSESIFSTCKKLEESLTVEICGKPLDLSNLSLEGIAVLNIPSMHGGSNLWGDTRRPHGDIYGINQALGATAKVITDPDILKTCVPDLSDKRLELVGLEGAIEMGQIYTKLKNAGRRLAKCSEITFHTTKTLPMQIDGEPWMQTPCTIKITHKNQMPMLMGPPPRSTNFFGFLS
Sequence of 3×HA-DGKα (Homo sapiens, UniProt P23743) (P23743 whole entry): as the sequence (P23743 whole entry V656L) above, with L656V counted along it

Row | Compound | Km, mol% (3×HA-DGKα [1]) [mol%] | Km, mol% (3×HA-DGKα [2]) [mol%] | fold activation (c-myc-PIP5K Iα) [fold]
1 | CCCCC/C=C\C/C=C\CCCCCCCC(=O)O[C@@H](CO)COC(=O)CCCCCCCCCCCCCCCCC [SLG, 1-Stearoyl-2-linoleoyl-sn-glycerol] | 1.5 ± 0.4 | 2.8 ± 0.3 | –
2 | CCCCC/C=C\C/C=C\C/C=C\C/C=C\CCCC(=O)OC[C@H](COP(=O)(O)O)OC(=O)CCC/C=C\C/C=C\C/C=C\C/C=C\CCCCC [DAPA, 1,2-Diarachidonoyl phosphatidic acid] | – | – | 12
3 | CCCCC/C=C\C/C=C\C/C=C\C/C=C\CCCC(=O)O[C@@H](CO)COC(=O)CCCCCCCCCCCCCCCCC [SAG, 1-Stearoyl-2-arachidonoyl-sn-glycerol] | 1.8 ± 0.3 | 2.1 ± 0.4 | –
